Test results: PMC7582770, “Synthesis of “All-Cis” Trihydroxypiperidines from a Carbohydrate-Derived Ketone: Hints for the Design of New β-Gal and GCase Inhibitors” (Molecules, 2020)

How the values were obtained:
[1] = biological target: T1, human lysosomal β-galactosidase (β-Gal) (Homo sapiens, UniProt P16278); experiment: β-Gal inhibition in human leukocyte homogenates; type: biochemical; conditions: compounds 1 mM; human leukocytes extracts
T1 construct: in leukocytes isolated from healthy donors (controls); endogenous in cells; host or cells: human leukocytes from healthy donors, disrupted by sonication (crude homogenate)
T1 sequence (P16278 29-677): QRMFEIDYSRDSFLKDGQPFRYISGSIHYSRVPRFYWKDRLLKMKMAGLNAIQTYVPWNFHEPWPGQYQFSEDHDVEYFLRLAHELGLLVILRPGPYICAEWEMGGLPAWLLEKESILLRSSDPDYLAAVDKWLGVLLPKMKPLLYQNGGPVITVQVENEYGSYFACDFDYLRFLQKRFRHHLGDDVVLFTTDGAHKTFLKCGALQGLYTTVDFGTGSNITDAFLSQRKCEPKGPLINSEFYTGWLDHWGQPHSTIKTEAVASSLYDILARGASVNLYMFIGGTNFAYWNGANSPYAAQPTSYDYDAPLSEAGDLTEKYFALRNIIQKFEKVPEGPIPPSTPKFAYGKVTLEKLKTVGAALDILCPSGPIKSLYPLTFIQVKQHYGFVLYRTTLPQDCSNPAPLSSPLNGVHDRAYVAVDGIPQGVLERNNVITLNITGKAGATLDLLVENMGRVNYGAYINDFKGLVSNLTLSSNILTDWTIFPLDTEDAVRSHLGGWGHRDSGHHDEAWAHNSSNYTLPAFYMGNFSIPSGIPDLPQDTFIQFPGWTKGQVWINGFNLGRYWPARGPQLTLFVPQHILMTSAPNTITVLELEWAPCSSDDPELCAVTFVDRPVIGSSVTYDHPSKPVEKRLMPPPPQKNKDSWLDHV
Procedure: The new compounds were screened at 1 mM concentration towards β-galactosidase (β-Gal) and β-glucosidase (GCase) in leukocytes isolated from healthy donors (controls). Isolated leukocytes were disrupted by sonication, and a Micro BCA Protein Assay Kit (Sigma–Aldrich, St. Louis, MO, USA) was used to determine the total protein amount for the enzymatic assay, according to the manufacturer’s instructions.
β-Gal activity was measured in a flat-bottomed 96-well plate. Azasugar solution (3 μL), 4.29 μg/μL leukocytes homogenate 1:10 (7 μL), and substrate 4-methylumbelliferyl β-D-galactopyranoside (1.47 mM, 20 μL, Sigma–Aldrich) in acetate buffer (0.1 M, pH 4.3) containing NaCl (0.1 M) and sodium azide (0.02%) were incubated at 37 °C for 1 h. The reaction was stopped by addition of sodium carbonate (200 μL; 0.5 M, pH 10.7) containing Triton X-100 (0.0025%), and the fluorescence 4-methylumbelliferone released by β-galactosidase activity was measured in SpectraMax M2 Microplate Reader (λex = 365 nm and λem = 435 nm; Molecular Devices LLC, San Jose, CA, US). Inhibition is given with respect to the control (without azasugar). Data are mean SD (n = 3).

[2] = biological target: T2, β-galactosidase EC 3.2.1.23 (Escherichia coli, UniProt P00722); experiment: Commercial glycosidase screening; type: biochemical; conditions: read-out: % Inhibition at 0.1 mM, β-galactosidase Escherichia coli
T2 construct: purchased Sigma-Aldrich or Megazyme Ltd
Text: (§1) A panel of 12 commercial glycosidases (α-L-fucosidase EC 3.2.1.51 from Homo sapiens, α-galactosidase EC 3.2.1.22 from coffee beans, β-galactosidases EC 3.2.1.23 from Escherichia coli and Aspergillus oryzae, α-glucosidases EC 3.2.1.20 from yeast and rice, amyloglucosidase EC 3.2.1.3 from Aspergillus niger, β-glucosidase EC 3.2.1.21 from almonds, α-mannosidase EC 3.2.1.24 from Jack beans, β-mannosidase EC 3.2.1.25 from snail, β-N-acetylglucosaminidases EC 3.2.1.52 from Jack beans and bovine kidney) purchased from Sigma-Aldrich (St. Louis, MO, USA) or Megazyme Ltd. (Bray, Co. Wicklow, Ireland) was screened.
(§2) The percentage (%) of inhibition towards the corresponding glycosidase was determined in quadruplicate in the presence of 100 μM of the inhibitor on the well. Each enzymatic assay (final volume 0.12 mL) contains 0.01–0.5 units/mL of the enzyme (with previous calibration) and 4.2 mM aqueous solution of the appropriate p-nitrophenyl glycopyranoside (substrate) buffered to the optimal pH of the enzyme. Enzyme and inhibitor were preincubated for 5 min at room temperature, and the reaction started by addition of the substrate. After 20 min of incubation at 37 °C, the reaction was stopped by the addition of 0.1 mL of sodium borate solution (pH 9.8). The p-nitrophenolate formed was measured by visible absorption spectroscopy at 405 nm (Asys Expert 96 spectrophotometer, Biochrom Ltd., Cambridge, England). Under these conditions, the p-nitrophenolate released led to optical densities linear with both reaction time and concentration of the enzyme (for more details, see the Supplementary Materials). The IC50 value (concentration of inhibitor required for 50% inhibition of enzyme activity) was determined from plots of % inhibition vs. different inhibitor concentrations. Each point of the graph is the average of four measures. The standard deviation for each point has been also represented in the graph.

[3] = test system: α-glucosidase EC 3.2.1.20; experiment: Commercial glycosidase screening; type: biochemical, rice; conditions: 0.1 mM inhibitor
Text: as §1, §2

[4] = test system: β-N-acetylglucosaminidase EC 3.2.1.52; experiment: Commercial glycosidase screening; type: biochemical, bovine kidney; conditions: 0.1 mM inhibitor
Text: as §1, §2

T2 sequence (P00722 2-1024): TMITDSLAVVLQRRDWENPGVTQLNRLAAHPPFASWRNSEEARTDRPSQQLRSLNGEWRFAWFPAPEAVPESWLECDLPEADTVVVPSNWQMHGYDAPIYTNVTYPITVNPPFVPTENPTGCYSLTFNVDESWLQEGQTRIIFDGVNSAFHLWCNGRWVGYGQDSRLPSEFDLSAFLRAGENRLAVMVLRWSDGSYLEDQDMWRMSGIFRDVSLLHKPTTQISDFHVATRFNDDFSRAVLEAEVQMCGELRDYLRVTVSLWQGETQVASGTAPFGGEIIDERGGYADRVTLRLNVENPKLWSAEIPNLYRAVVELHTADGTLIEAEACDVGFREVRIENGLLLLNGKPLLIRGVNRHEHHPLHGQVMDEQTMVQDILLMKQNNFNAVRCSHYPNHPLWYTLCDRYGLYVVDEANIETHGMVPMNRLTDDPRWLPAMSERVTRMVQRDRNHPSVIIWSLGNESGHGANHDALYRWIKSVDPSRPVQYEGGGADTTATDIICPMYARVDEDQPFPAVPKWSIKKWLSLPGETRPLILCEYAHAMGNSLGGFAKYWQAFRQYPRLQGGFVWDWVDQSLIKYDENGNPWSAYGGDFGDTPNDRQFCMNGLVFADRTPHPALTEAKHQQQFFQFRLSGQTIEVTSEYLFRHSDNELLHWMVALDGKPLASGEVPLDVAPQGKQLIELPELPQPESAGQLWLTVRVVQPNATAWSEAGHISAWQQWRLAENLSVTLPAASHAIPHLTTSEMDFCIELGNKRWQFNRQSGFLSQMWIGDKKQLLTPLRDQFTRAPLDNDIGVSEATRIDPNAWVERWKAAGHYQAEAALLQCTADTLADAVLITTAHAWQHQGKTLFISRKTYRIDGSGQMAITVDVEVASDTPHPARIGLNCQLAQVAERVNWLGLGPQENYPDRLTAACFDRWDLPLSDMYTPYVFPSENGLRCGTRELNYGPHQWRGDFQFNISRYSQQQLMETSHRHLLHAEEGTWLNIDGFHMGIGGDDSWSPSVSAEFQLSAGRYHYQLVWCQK

| SMILES | inhibition at 1000 µM [1] [%] | inhibition at 100 µM [2] [%] | % Inhibition at 0.1 mM, α-glucosidase rice [3] | % Inhibition at 0.1 mM, β-N-acetylglucosaminidase bovine kidney [4] |
| --- | --- | --- | --- | --- |
| CCCCCCCCCO[C@H]1CNC[C@@H](O)[C@H]1O [compound 9, (3S, 4R, 5R)-4,5-Dihydroxy-3-(Nonyloxy) Piperidine] | 22 | – | – | – |
| CCCCCCCCCCCCN[C@H]1CNC[C@@H](O)[C@H]1O [compound 10, (3R, 4S, 5S)-3,4-Dihydroxy-5-(Dodecylamino) Piperidine] | 0 | 0 | - (no inhibition detected) | - (no inhibition detected) |
| CCCCCCCC[C@]1(O)CNC[C@@H](O)[C@H]1O [compound 12, (3S, 4R, 5R)-3,4,5-Trihydroxy-3-Octyl-Piperidine] | 0 | 0 | - (no inhibition detected) | - (no inhibition detected) |
| CCCCCCCCCO[C@@H]1CNC[C@@H](O)[C@H]1O [compound 21, (3R, 4R, 5R)-4,5-Dihydroxy-3-(Nonyloxy) Piperidine] | 0 | 0 | - (no inhibition detected) | - (no inhibition detected) |
